# According to patent US11135320B2, “Radioligands for pretargeted pet imaging and methods of their therapeutic use” (priority 2015, dated 2021):
# Where “and” joins values, the source holds several entries; their conditions need not be identical. Equal entries are not always repeated.
# Tested on: subcutaneous SW1222 xenografts (A33 antigen-expressing human colorectal carcinoma)
# Experiment: Pretargeted biodistribution with huA33-TCO and ^64Cu-tetrazine radioligand
# Assay type: in vivo, athymic nude mice
# Procedure: Female athymic nude mice bearing subcutaneous SW1222 (right shoulder) xenografts (100-150 mm^3, 18-21 days post-inoculation) were administered 100 μg (0.66 nmol) huA33-TCO (in 200 μL 0.9% sterile saline) via intravenous tail vein injection. […] The specific activity of the radiotracer was adjusted using cold ^natCu-Tz-SarAr such that the molar ratio of Tzinjected:huA^33injected=1:1. Animals (n=4 per group) were euthanized by CO2(g) asphyxiation at 1, 4, 12, and 24 h after injection. After asphyxiation, 13 tissues were removed, rinsed in water, dried in air for 5 min, weighed, and counted in a gamma counter calibrated for ^64Cu. Counts were converted into activity using a calibration curve generated from known standards. Count data were background- and decay-corrected to the time of injection, and the percent injected dose per gram (% ID/g) for each tissue sample was calculated by normalization to the total activity injected. Contents within the stomach, small intestine, and large intestine were not removed for the measurements.
# Contents within the stomach, small intestine, and large intestine were not removed for the measurements. […] Zeglis, B. M. et al. “A pretargeted PET imaging strategy based on bioorthogonal Diels-Alder click chemistry.” Journal of Nuclear Medicine. 54, 1389-1396 (2013). ©2013 by the Society of Nuclear Medicine and Molecular Imaging, Inc.
# Zeglis, B. M. et al. “A pretargeted PET imaging strategy based on bioorthogonal Diels-Alder click chemistry.” Journal of Nuclear Medicine. 54, 1389-1396 (2013). ©2013 by the Society of Nuclear Medicine and Molecular Imaging, Inc.
# (§1) Female athymic nude mice bearing subcutaneous SW1222 (right shoulder) xenografts (100-150 mm^3, 18-21 days post-inoculation) were administered 100 μg (0.66 nmol) huA33-TCO (in 200 μL 0.9% sterile saline) via intravenous tail vein injection. After an accumulation interval of 48 h, the same mice were then administered ^64Cu-Tz-SarAr (300-350 μCi in 200 μL 0.9% sterile saline) via intravenous tail vein injection (t=0). The specific activity of the radiotracer was adjusted using cold ^natCu-Tz-SarAr such that the molar ratio of Tzinjected:huA^33injected=1:1. Animals (n=4 per group) were euthanized by CO2(g) asphyxiation at 1, 4, 12, and 24 h after injection. After asphyxiation, tissues were removed, rinsed in water, dried in air for 5 min, weighed, and counted in a gamma counter calibrated for ^64Cu. Counts were converted into activity using a calibration curve generated from known standards. Count data were background- and decay-corrected to the time of injection, and the percent injected dose per gram (% ID/g) for each tissue sample was calculated by normalization to the total activity injected. Contents within the stomach, small intestine, and large intestine were not removed for the measurements.
# as §1, with “120” for “48”, “Contents within the stomach, small intestine, and large intestine were not removed for the measurements.” left out
# [1] = 24 h accumulation interval, 1 h p.i.
# [2] = 24 h accumulation interval, 4 h p.i.
# [3] = 24 h accumulation interval, 12 h p.i.
# [4] = 24 h accumulation interval, 24 h p.i.
# [5] = 48 h accumulation interval, 1 h p.i.
# [6] = 48 h accumulation interval, 4 h p.i.
structure (smiles),measurement,setting,value
NC12CNCCNCC(NCc3ccc(CNC(=O)CCCC(=O)NCc4ccc(-c5nncnn5)cc4)cc3)(CNCCNC1)CNCCNC2.[64Cu+2] [^64Cu-Tz-SarAr],Blood activity concentration,[1],4.2±0.8 % ID/g and 4.20 ± 0.80^a % ID/g
same,Bone activity concentration,[1],0.67 ± 0.14 % ID/g
same,Heart activity concentration,[1],1.81 ± 0.46 % ID/g
same,Kidney activity concentration,[1],3.1±0.3 % ID/g and 3.08 ± 0.28 % ID/g
same,Large Intestine activity concentration,[1],0.21±0.09 % ID/g
same,Liver activity concentration,[1],1.60 ± 0.12 % ID/g
same,Lung activity concentration,[1],1.65 ± 0.51 % ID/g
same,Muscle activity concentration,[1],0.38 ± 0.06 % ID/g
same,Small Intestine activity concentration,[1],0.88 ± 0.09 % ID/g
same,Spleen activity concentration,[1],0.98 ± 0.25 % ID/g
same,Stomach activity concentration,[1],0.73 ± 0.19 % ID/g
same,Tumor activity concentration,[1],5.63±0.67 % ID/g
same,Tumor/Blood activity concentration ratio,[1],1.34 ± 0.3
same,Tumor/Bone activity concentration ratio,[1],8.43 ± 2.07
same,Tumor/Heart activity concentration ratio,[1],3.11 ± 0.87
same,Tumor/Kidney activity concentration ratio,[1],1.83 ± 0.27
same,Tumor/Large Intestine activity concentration ratio,[1],26.88 ± 12.11
same,Tumor/Liver activity concentration ratio,[1],3.52 ± 0.49
same,Tumor/Lung activity concentration ratio,[1],3.40 ± 1.12
same,Tumor/Muscle activity concentration ratio,[1],14.9±2.9 and 14.92 ± 2.85
same,Tumor/Small Intestine activity concentration ratio,[1],6.42 ± 1.01
same,Tumor/Spleen activity concentration ratio,[1],5.75 ± 1.61
same,Tumor/Stomach activity concentration ratio,[1],7.75 ± 2.24
same,Blood activity concentration,[2],4.0±0.37 % ID/g
same,Bone activity concentration,[2],0.34 ± 0.18 % ID/g
same,Heart activity concentration,[2],1.45 ± 0.03 % ID/g
same,Kidney activity concentration,[2],2.77 ± 0.57 % ID/g
same,Large Intestine activity concentration,[2],0.48 ± 0.09 % ID/g
same,Liver activity concentration,[2],1.45 ± 0.21 % ID/g
same,Lung activity concentration,[2],1.55 ± 0.45 % ID/g
same,Muscle activity concentration,[2],0.37 ± 0.07 % ID/g
same,Small Intestine activity concentration,[2],0.62 ± 0.06 % ID/g
same,Spleen activity concentration,[2],0.81 ± 0.20 % ID/g
same,Stomach activity concentration,[2],0.56 ± 0.20 % ID/g
same,Tumor activity concentration,[2],5.56±0.91 % ID/g and 5.6±0.9 % ID/g
same,Tumor/Blood activity concentration ratio,[2],1.39 ± 0.26
same,Tumor/Bone activity concentration ratio,[2],16.15 ± 8.89
same,Tumor/Heart activity concentration ratio,[2],3.84 ± 0.63
same,Tumor/Kidney activity concentration ratio,[2],2.00 ± 0.53
same,Tumor/Large Intestine activity concentration ratio,[2],11.65 ± 2.99
same,Tumor/Liver activity concentration ratio,[2],3.83 ± 0.83
same,Tumor/Lung activity concentration ratio,[2],3.59 ± 1.20
same,Tumor/Muscle activity concentration ratio,[2],14.84 ± 3.69
same,Tumor/Small Intestine activity concentration ratio,[2],8.96 ± 1.71
same,Tumor/Spleen activity concentration ratio,[2],6.88 ± 2.01
same,Tumor/Stomach activity concentration ratio,[2],9.91 ± 3.85
same,Blood activity concentration,[3],2.19 ± 0.39 % ID/g
same,Bone activity concentration,[3],0.23 ± 0.05 % ID/g
same,Heart activity concentration,[3],0.84 ± 0.1 % ID/g
same,Kidney activity concentration,[3],1.87 ± 0.42 % ID/g
same,Large Intestine activity concentration,[3],0.20 ± 0.04 % ID/g
same,Liver activity concentration,[3],1.33 ± 0.53 % ID/g
same,Lung activity concentration,[3],1.24 ± 0.22 % ID/g
same,Muscle activity concentration,[3],0.15 ± 0.01 % ID/g
same,Small Intestine activity concentration,[3],0.35 ± 0.08 % ID/g
same,Spleen activity concentration,[3],0.65 ± 0.17 % ID/g
same,Stomach activity concentration,[3],0.21 ± 0.1 % ID/g
same,Tumor activity concentration,[3],6.74±1.26 % ID/g
same,Tumor/Bone activity concentration ratio,[3],29.8 ± 8.38
same,Tumor/Heart activity concentration ratio,[3],8.01 ± 1.77
same,Tumor/Kidney activity concentration ratio,[3],3.61 ± 1.05
same,Tumor/Large Intestine activity concentration ratio,[3],33.67±8.82
same,Tumor/Liver activity concentration ratio,[3],5.06 ± 2.23
same,Tumor/Lung activity concentration ratio,[3],5.43 ± 1.41
same,Tumor/Small Intestine activity concentration ratio,[3],19.37 ± 5.95
same,Tumor/Spleen activity concentration ratio,[3],10.34 ± 3.27
same,Tumor/Stomach activity concentration ratio,[3],31.76 ± 16.62
same,Blood activity concentration,[4],2.61 ± 0.20 % ID/g
same,Bone activity concentration,[4],0.29 ± 0.05 % ID/g
same,Heart activity concentration,[4],0.81 ± 0.04 % ID/g
same,Kidney activity concentration,[4],1.9±0.4 % ID/g and 2.00 ± 0.24 % ID/g
same,Large Intestine activity concentration,[4],0.26 ± 0.06 % ID/g
same,Liver activity concentration,[4],1.51 ± 0.2 % ID/g
same,Lung activity concentration,[4],0.99 ± 0.24 % ID/g
same,Muscle activity concentration,[4],0.20 ± 0.07 % ID/g
same,Small Intestine activity concentration,[4],0.45 ± 0.07 % ID/g
same,Spleen activity concentration,[4],0.64 ± 0.04 % ID/g
same,Stomach activity concentration,[4],0.28 ± 0.07 % ID/g
same,Tumor activity concentration,[4],7.38 ± 2.02 % ID/g
same,Tumor/Blood activity concentration ratio,[4],2.83±0.81
same,Tumor/Bone activity concentration ratio,[4],25.46 ± 8.22
same,Tumor/Heart activity concentration ratio,[4],9.10 ± 2.54
same,Tumor/Kidney activity concentration ratio,[4],3.68 ± 1.1
same,Tumor/Large Intestine activity concentration ratio,[4],28.86 ± 10.28
same,Tumor/Liver activity concentration ratio,[4],4.87 ± 1.48
same,Tumor/Lung activity concentration ratio,[4],7.44 ± 2.74
same,Tumor/Muscle activity concentration ratio,[4],37.37±16.1 and 37.37 ± 16.06
same,Tumor/Small Intestine activity concentration ratio,[4],16.33 ± 5.12
same,Tumor/Spleen activity concentration ratio,[4],11.45 ± 3.20
same,Tumor/Stomach activity concentration ratio,[4],26.44 ± 9.89
same,activity concentration in all other non-target tissues,"24 h accumulation interval, later time points, other than blood and kidneys",less than 1.5 % ID/g
same,Blood activity concentration,[5],2.15 ± 0.5 % ID/g
same,Bone activity concentration,[5],0.23 ± 0.05 % ID/g
same,Heart activity concentration,[5],1.05 ± 0.24 % ID/g
same,Kidney activity concentration,[5],1.98 ± 0.26 % ID/g
same,Large Intestine activity concentration,[5],0.29 ± 0.09 % ID/g
same,Liver activity concentration,[5],1.79 ± 0.09 % ID/g
same,Lung activity concentration,[5],1.68 ± 0.09 % ID/g
same,Muscle activity concentration,[5],0.22 ± 0.11 % ID/g
same,Small Intestine activity concentration,[5],0.54 ± 0.15 % ID/g
same,Spleen activity concentration,[5],0.84 ± 0.27 % ID/g
same,Stomach activity concentration,[5],0.39 ± 0.17 % ID/g
same,Tumor activity concentration,[5],4.49 ± 0.44 % ID/g
same,Tumor/Blood activity concentration ratio,[5],2.09 ± 0.52
same,Tumor/Bone activity concentration ratio,[5],19.48 ± 4.94
same,Tumor/Heart activity concentration ratio,[5],4.27 ± 1.05
same,Tumor/Kidney activity concentration ratio,[5],2.27 ± 0.37
same,Tumor/Large Intestine activity concentration ratio,[5],15.48 ± 5.25
same,Tumor/Liver activity concentration ratio,[5],2.51 ± 0.27
same,Tumor/Lung activity concentration ratio,[5],2.67 ± 0.3
same,Tumor/Muscle activity concentration ratio,[5],20.34 ± 10.25
same,Tumor/Small Intestine activity concentration ratio,[5],8.35 ± 2.48
same,Tumor/Spleen activity concentration ratio,[5],5.34 ± 1.79
same,Tumor/Stomach activity concentration ratio,[5],11.57 ± 5.25
same,Blood activity concentration,[6],1.78±0.28 % ID/g
same,Bone activity concentration,[6],0.32 ± 0.12 % ID/g
same,Heart activity concentration,[6],1.08 ± 0.32 % ID/g
same,Kidney activity concentration,[6],1.83 ± 0.57 % ID/g
same,Large Intestine activity concentration,[6],0.41 ± 0.11 % ID/g
same,Liver activity concentration,[6],1.27 ± 0.19 % ID/g
same,Lung activity concentration,[6],1.53 ± 0.28 % ID/g
same,Muscle activity concentration,[6],0.24 ± 0.08 % ID/g
same,Small Intestine activity concentration,[6],0.33 ± 0.1 % ID/g
same,Spleen activity concentration,[6],0.6 ± 0.09 % ID/g
same,Stomach activity concentration,[6],0.27 ± 0.18 % ID/g
same,Tumor activity concentration,[6],5.2±1.4 % ID/g and 5.15 ± 1.42 % ID/g
same,Tumor/Blood activity concentration ratio,[6],2.9 ± 0.92
same,Tumor/Bone activity concentration ratio,[6],15.86 ± 7.12
same,Tumor/Heart activity concentration ratio,[6],4.75 ± 1.92
same,Tumor/Kidney activity concentration ratio,[6],2.81 ± 1.16
same,Tumor/Large Intestine activity concentration ratio,[6],12.68 ± 4.87
same,Tumor/Liver activity concentration ratio,[6],4.06 ± 1.27
same,Tumor/Lung activity concentration ratio,[6],3.37 ± 1.11
same,Tumor/Muscle activity concentration ratio,[6],21.84 ± 9.2
same,Tumor/Small Intestine activity concentration ratio,[6],15.71 ± 6.48
same,Tumor/Spleen activity concentration ratio,[6],8.55 ± 2.69
same,Tumor/Stomach activity concentration ratio,[6],18.92 ± 13.29
